Measured values: the Kinase Knowledgebase extract (Sharma et al. 2016)

The molecules below were run against CDK2 (human) (UniProt P24941) (assay: Enzyme Assay).
Molecule `CC(C)c1n[nH]cc1-c1ccnc(NC2CN3CCC2CC3)n1` (stereo not drawn) has an IC50 of under 5 µM.
In the case of `c1cc(-c2cn[nH]c2C2CCCC2)cc(NC2CCCCC2)n1`, the IC50 is reported as under 1 µM.
For `CC(C)CNc1nccc(-c2c[nH]nc2C(C)C)n1`, the IC50 was under 0.1 µM.
In the case of `CC(C)c1[nH]ncc1-c1ccnc(NCCc2ccccc2)c1`, the IC50 is reported as under 1 µM.
In the case of `CC(C)c1[nH]ncc1-c1ccnc(NCC2CCCO2)c1` (stereo not drawn), the IC50 is reported as under 10 µM.
For `CC(C)c1[nH]ncc1-c1ccnc(NCCCn2ccnc2)c1`, the IC50 was under 1 µM.
With `CC(C)c1n[nH]cc1-c1ccnc(NC2CCCCC2)n1` the IC50 was under 0.05 µM.
`CCC(C)Nc1nccc(-c2c[nH]nc2C)n1` (stereo not drawn) was tested, and the IC50 was under 5 µM.
For `CC(C)c1n[nH]cc1-c1ccnc(NCCCN(C)C)n1`, the IC50 was under 10 µM.
For `Cc1n[nH]cc1-c1ccnc(NC2CCCCC2)n1`, the IC50 was under 5 µM.
Work on `Cc1nnc(CCNc2nccc(-c3c[nH]nc3C(C)C)n2)[nH]1` yielded an IC50 of under 5 µM.
Molecule `Cc1cccc(CNc2cc(-c3cn[nH]c3C3CCCC3)ccn2)c1` has an IC50 of under 5 µM.
`c1cc(-c2cn[nH]c2C2CCCC2)cc(NC2CC2)n1` was tested, and the IC50 was under 1 µM.
`CC(C)c1[nH]ncc1-c1ccnc(NC(C)c2ccccc2)c1` (stereo not drawn) gave an IC50 of under 5 µM.
Work on `Cc1ccc(CNc2cc(-c3cn[nH]c3C3CCCC3)ccn2)cc1` yielded an IC50 of under 5 µM.
`CCCCNc1cc(-c2cn[nH]c2C(C)C)ccn1` showed an IC50 of under 5 µM.
In the case of `CC(C)c1n[nH]cc1-c1ccnc(NC2CCc3ccccc32)n1` (stereo not drawn), the IC50 is reported as under 1 µM.
`Cc1nnc(C(C)Nc2nccc(-c3c[nH]nc3C(C)C)n2)[nH]1` (stereo not drawn) gave an IC50 of under 15 µM.
